From ChEMBL document CHEMBL1139062, “Synthesis and biological evaluation of new conformationally biased integrin ligands based on a tetrahydroazoninone scaffold” (Bioorg Med Chem Lett, 2007)

Experiments:
Assay type in all cases: protein-complex assay
[1] = target: T1, Integrin alpha-V/beta-5 (Homo sapiens) (UniProt P06756+P18084); test: Displacement of [125I]echistatin from integrin alpha-V-beta-5 receptor at 1000 uM
[2] = target: T2, Integrin alpha-V/beta-3 (Homo sapiens) (UniProt P05106+P06756); test: Displacement of [125I]echistatin from integrin alpha-V-beta-3 receptor at 1 uM
[3] = target: T1, Integrin alpha-V/beta-5 (Homo sapiens); test: Displacement of [125I]echistatin from integrin alpha-V-beta-5 receptor at […]
[4] = target: T2, Integrin alpha-V/beta-3 (Homo sapiens); test: Displacement of [125I]echistatin from integrin alpha-V-beta-3 receptor at 0.01 uM
[5] = target: T2, Integrin alpha-V/beta-3 (Homo sapiens); test: Displacement of [125I]echistatin from integrin alpha-V-beta-3 receptor at 0.001 uM
[6] = target: T2, Integrin alpha-V/beta-3 (Homo sapiens); test: Displacement of [125I]echistatin from integrin alpha-V-beta-3 receptor at 10 uM
[7] = target: T2, Integrin alpha-V/beta-3 (Homo sapiens); test: Displacement of [125I]echistatin from integrin alpha-V-beta-3 receptor at 0.1 uM

Row | SMILES | inhibition [1] | inhibition [2] | inhibition [3] | inhibition [4] | inhibition [5] | inhibition [6] | inhibition [7]
1 | CC12CC/C=C\CC(NC1=O)C(=O)N[C@H](CCCNC(=N)N)C(=O)NCC(=O)N[C@@H](CC(=O)O)C(=O)N2Cc1ccccc1 (stereo in doubt; 2b) | 13% | 50% | 15% | 15% | 5% | 52% | 53%
2 | CC12CC/C=C\CC(NC1=O)C(=O)N[C@H](CCCNC(=N)N)C(=O)NCC(=O)N[C@@H](CC(=O)O)C(=O)N2Cc1ccccc1 (stereo in doubt; 2a) | 13% | 49% | 17% | – | – | 48% | –
3 | CC12CC/C=C\CC(NC1=O)C(=O)N[C@H](CCCNC(=N)N)C(=O)NCC(=O)N[C@@H](CC(=O)O)C(=O)N2 (stereo in doubt; 3b) | – | 30% | – | – | – | 62% | –
4 | N=C(N)NCCC[C@@H]1NC(=O)CNC(=O)[C@@H](CC(=O)O)N[C@H]2CCC[C@H]3CC[C@H](C1=O)N3C2=O | – | – | – | – | 85% | – | –
5 | CC12CC/C=C\CC(NC1=O)C(=O)N[C@H](CCCNC(=N)N)C(=O)NCC(=O)N[C@@H](CC(=O)O)C(=O)N2 (stereo in doubt; 3a) | – | 30% | – | – | – | 62% | –
